Data reported in publication PMC7918612, “Novel Inhibitors of Nicotinamide-N-Methyltransferase for the Treatment of Metabolic Disorders” (Molecules, 2021).
Like-named read-outs stand apart in the source and are kept apart here.

Tests used:
[1] = tested on: mice with diet-induced obesity; settings: cited from earlier work
human NNMT = biological target: T1, human NNMT (Homo sapiens, UniProt P40261); test: Fluorescence-based NNMT enzymatic assay (human enzyme); type: biochemical; settings: for IC50: read-out: hNNMT IC50; for reduction in potency on hNNMT: relative to (1)
T1 sequence (P40261 1-264): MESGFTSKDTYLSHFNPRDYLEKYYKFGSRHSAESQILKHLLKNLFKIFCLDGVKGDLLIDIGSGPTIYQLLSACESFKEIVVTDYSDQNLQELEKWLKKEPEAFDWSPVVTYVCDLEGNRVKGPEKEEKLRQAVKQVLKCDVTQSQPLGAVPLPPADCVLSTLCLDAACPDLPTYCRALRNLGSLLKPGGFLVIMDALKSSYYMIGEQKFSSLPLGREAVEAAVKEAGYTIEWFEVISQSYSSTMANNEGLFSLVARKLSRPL
Protocol: (§1) Experimental Procedures S2: Fluorescence-based NNMT enzymatic assay
(§2) NNMT activity was measured by fluorescence based assay. The product MNA formed in the reaction reacts with acetophenone in the presence of KOH and formic acid and forms a fluorescent product 2, 7- naphthyridine. The fluorescence intensity measured with excitation at 375nm and emission at 430nm. Inhibitors were screened using human, mouse and monkey NNMT enzymes. Different concentrations of inhibitors were pre-incubated along with 5ng/well of human NNMT enzyme and 3.42ng/well of mouse NNMT enzyme for 30 minutes at room temperature. Reaction was initiated by addition of SAM and nicotinamide mixture (7µM, 20µM, 8µM SAM and 6µM, 20µM, 9µM nicotinamide for human, mouse and monkey NNMT assays respectively) and incubated for 60 minutes at 37°C. The final assay reaction mixture contained a buffer of 100mM Tris Hcl pH 7.5, 0.04% BSA, 2mM Dithiothreitol and 1% DMSO. The reaction was terminated by addition of Ethanol: Acetophenone mix (75% ethanol: 25% Acetophenone) and 5M potassium Hydroxide prepared with 50% Ethanol. The reaction was incubated for 15 minutes followed by addition of 100µl of 60% formic acid and further incubation for 60 minutes at room temperature. A fluorescent product 2, 7- naphthyridine was measured in a Tecan reader with excitation at 375nm and emission at 430nm. The IC50 values were determined by fitting the inhibition curves (percent inhibition versus inhibitor concentration) using a four parametric sigmoidal dose response in graph pad prism. […]

mouse NNMT = biological target: T2, mouse NNMT (Mus musculus, UniProt O55239); test: Fluorescence-based NNMT enzymatic assay (mouse enzyme); type: biochemical; settings: for IC50: read-out: mNNMT IC50
T2 sequence (O55239 1-264): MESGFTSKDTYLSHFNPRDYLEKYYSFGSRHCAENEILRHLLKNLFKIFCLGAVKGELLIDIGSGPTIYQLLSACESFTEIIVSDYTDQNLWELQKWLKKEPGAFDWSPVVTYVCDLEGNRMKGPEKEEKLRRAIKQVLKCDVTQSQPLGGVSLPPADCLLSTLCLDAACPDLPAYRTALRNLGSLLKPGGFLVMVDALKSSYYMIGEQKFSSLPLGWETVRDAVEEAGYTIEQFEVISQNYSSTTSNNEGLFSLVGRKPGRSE
Protocol: as §1, §2

[2] = Metabolic stability in human liver microsomes; type: in vitro ADME; design: HLM: unit not given beside the values; settings: for remaining at 1 h: human liver microsomes, read-out: HLM % Remaining at 1 h; for HLM: Table 3, human liver microsome data, head HLM/MLM without unit
Protocol: (§3) Experimental Procedures S3: Metabolic stability in human and mouse liver microsomes
(§4) These profiling studies were carried out as described in Mullangi R. et. al. Preclinical assessment of
(§5) ulixertinib, a novel ERK1/2 inhibitor, ADMET & DMPK, 2017, 212-223;

[3] = Metabolic stability in rat liver microsomes; type: in vitro ADME; settings: read-out: RLM % Remaining at 1 h
[4] = Metabolic stability in mouse liver microsomes; type: in vitro ADME; settings: for remaining at 1 h: mouse liver microsomes, read-out: MLM % Remaining at 1 h; for MLM: Table 3, mouse liver microsome data, head HLM/MLM without unit
Protocol: as §3, §4, §5

[5] = Metabolic stability in liver microsomes (species not specified); type: in vitro ADME
Protocol: as §3, §4, §5

NNMT = settings: substrate of NNMT; cited from earlier work

Molecule	hNNMT potency, in words (human NNMT)	IC50 (human NNMT) [µM]	IC50 (mouse NNMT) [µM]	remaining at 1 h [2] [%]	remaining at 1 h [4] [%]	also measured
5-amino-1-methylquinoline						body weight [1]: reduced body weight; glucose tolerance [1]: improved glucose tolerance; insulin sensitivity [1]: higher insulin sensitivity
COc1ccc(-c2cn(C[C@](C)(O)C(=O)N3CCN(c4cccc5cnccc45)CC3)nc2C)cc1 (stereo in doubt) [Compound 12]	nanomolar potency	0.008	0.0008			mNNMT potency, in words (mouse NNMT): nanomolar potency
COc1ccc(C(N)=O)cn1 [6-methoxynicotinamide]						body weight [1]: reduced body weight; glucose tolerance [1]: improved glucose tolerance; insulin sensitivity [1]: higher insulin sensitivity
Cc1nn(CC(C)(O)C(=O)N2CCN(c3cccc4cnccc34)CC2)cc1-c1ccccc1 (stereo not drawn) [Compound 1]		0.26	0.84			
CCn1c(=N)n2c3c(cccc31)CCC2 [Compound 3]		0.2	0.5			mode of inhibition (human NNMT; competition with substrates nicotinamide / SAM): competitive inhibitors either of nicotinamide alone
Cc1nn(CCC(=O)N2CCN(c3cccc4cnccc34)CC2)cc1-c1ccccc1 [Compound 6]		1.67	2.2			reduction in potency on hNNMT (human NNMT): six-fold reduction; reduction in potency on mouse NMMT (mNNMT) (mouse NNMT; relative to (1)): 2.5 fold
Cc1nn(CC(C)(O)C(=O)N2CCN(c3ccc4cnccc4c3)CC2)cc1-c1cccc(F)c1 (stereo not drawn) [Compound 8]	completely lost hNNMT activity	> 10		< 5	< 5	remaining at 1 h [3]: < 5%
Cc1nn(CC(O)C(=O)N2CCN(c3cccc4cnccc34)CC2)cc1-c1cccc(F)c1.O=C(O)C(F)(F)F (stereo not drawn) [Compound 9]		0.88	2.43			reduction in potency on hNNMT (human NNMT): three-fold reduction
Cc1nn(CC(C)(O)C(=O)N2CCN(c3cccc4cnccc34)CC2)cc1-c1ccc(F)c(F)c1 (stereo not drawn) [Compound 10]		0.29	> 3	7	< 5	
Cc1nn(CC(C)(O)C(=O)N2CCN(c3c(F)ccc4cnccc34)CC2)cc1-c1cccc(F)c1 (stereo not drawn) [Compound 11]	retains potency	0.2	1.87	< 5	< 5	mNNMT potency, in words (mouse NNMT): retains potency
Cc1nn(CC(C)(O)C(=O)N2CCN(c3c(C)sc4cnccc34)CC2)cc1-c1cccc(F)c1 (stereo not drawn) [Compound 14]		0.49	3.48	< 5	< 5	
Cc1nn(CC(C)(O)C(=O)N2CCN(c3cccc4cnncc34)CC2)cc1-c1cccc(F)c1 (stereo not drawn) [Compound 15]		0.79	5.1	< 5	< 5	remaining at 1 h [3]: < 5%
Cc1nn(CC(C)(O)C(=O)N2CCN(c3cccc4cncnc34)CC2)cc1-c1cccc(F)c1 (stereo not drawn) [Compound 16]		1.1	1.63	< 5	< 5	remaining at 1 h [3]: < 5%
Cc1nn(CC(C)(O)C(=O)N2CCN(c3cnc4cnccn34)CC2)cc1-c1cccc(F)c1 (stereo not drawn) [Compound 17]		> 3		27	8	remaining at 1 h [3]: < 5%
Cc1nn(CC(C)(O)C(=O)N2CCN(c3ccc4c(cnn4Cc4ccccc4)c3)CC2)cc1-c1cccc(F)c1 (stereo not drawn) [Compound 18]		> 30		35	30	remaining at 1 h [3]: < 5%
Cc1nn(CC(C)(O)C(=O)N2CCN(c3ccc4[nH]ncc4c3)CC2)cc1-c1cccc(F)c1 (stereo not drawn) [Compound 19]		> 10				

Molecule	hNNMT potency, in words (human NNMT)	IC50 (human NNMT) [µM]	IC50 (mouse NNMT) [µM]	remaining at 1 h [2] [%]	remaining at 1 h [4] [%]	also measured
Cc1nn(CC(C)(O)C(=O)N2CCN(c3cccc4[nH]ncc34)CC2)cc1-c1cccc(F)c1 (stereo not drawn) [Compound 20]		> 3		18	< 5	
Cc1nn(CC(C)(O)C(=O)N2CCN(c3cccc4[nH]c(=O)ccc34)CC2)cc1-c1cccc(F)c1 (stereo not drawn) [Compound 21]	reasonable potency	0.25	1.64	20	< 5	metabolic stability, in words [5]: did not improve; remaining at 1 h [3]: < 5%
Cc1nn(CC(C)(O)C(=O)N2CCN(c3cccc4c(=O)[nH]ccc34)CC2)cc1-c1cccc(F)c1 (stereo not drawn) [Compound 22]	not active	> 30		16	< 5	remaining at 1 h [3]: 31%
Cc1nn(CC(C)(O)C(=O)N2CCN(c3cccc4c3ccc(=O)n4C)CC2)cc1-c1cccc(F)c1 (stereo not drawn) [Compound 23]		0.15	1	< 5	< 5	metabolic stability, in words [5]: did not improve
Cc1nn(CC(C)(O)C(=O)N2CCN(c3cccc4c3OCC(=O)N4)CC2)cc1-c1cccc(F)c1 (stereo not drawn) [Compound 24]		> 10		< 5	< 5	
Cc1nn(CC(C)(O)C(=O)N2CCC(c3cccc4[nH]c(=O)ccc34)CC2)cc1-c1cccc(F)c1 (stereo not drawn) [Compound 25]						HLM [2]: 17; IC50 (human NNMT; Table 3): 0.75 µM; IC50 (mouse NNMT; Table 3): > 3 µM; reduction in mNNMT potency (mouse NNMT; compared to (21)): two-fold reduction; MLM [4]: < 5
Cc1nn(CC(C)(O)C(=O)N2CCC(C3=CC=CC4NC(=O)C=CC34)C2)cc1-c1cccc(F)c1 (stereo not drawn) [Compound 26]	substantial loss of potency					HLM [2]: 12; IC50 (human NNMT; Table 3): > 10 µM; MLM [4]: < 5
Cc1nn(CC(C)(O)C(=O)N2CC(c3cccc4[nH]c(=O)ccc34)C2)cc1-c1cccc(F)c1 (stereo not drawn) [Compound 27]	substantial loss of potency					IC50 (human NNMT; Table 3): > 30 µM
Cc1nn(CC(C)(O)C(=O)N2CCCN(c3cccc4[nH]c(=O)ccc34)CC2)cc1-c1cccc(F)c1 (stereo not drawn) [Compound 28]	substantial loss of potency					IC50 (human NNMT; Table 3): > 3 µM; IC50 (mouse NNMT; Table 3): > 30 µM
Cc1nn(CC(C)(O)C(=O)N2CC(c3cccc4cnccc34)C2)cc1-c1cccc(F)c1 (stereo not drawn) [Compound 29]						HLM [2]: <5/<5; IC50 (human NNMT; Table 3): > 30 µM; MLM [4]: <5/<5
Cc1nn(CC(C)(O)C(=O)N2CCC(O)(c3cccc4[nH]c(=O)ccc34)CC2)cc1-c1cccc(F)c1 (stereo not drawn) [Compound 30]	inactive					HLM [2]: <5/<5; IC50 (human NNMT; Table 3): > 10 µM; MLM [4]: <5/<5
Cc1nn(CC(C)(O)C(=O)N2CCC(O)(c3cccc4cnccc34)CC2)cc1-c1cccc(F)c1 (stereo not drawn) [Compound 31]						metabolic stability, in words [5]: insufficient for further profiling; HLM [2]: 23; IC50 (human NNMT; Table 3): 0.11 µM; increase in potency (human NNMT; comparator not stated): three-fold increase; IC50 (mouse NNMT; Table 3): 0.56 µM; MLM [4]: < 5
Cc1nn(CC(C)(O)C(=O)N2CCC(O)(c3cccc4c[n+]([O-])ccc34)CC2)cc1-c1cccc(F)c1 (stereo not drawn) [Compound 32]	completely lost NNMT inhibition					HLM [2]: 72; metabolic stability, in words ([2]; humans): improved metabolic stability; IC50 (human NNMT; Table 3): > 30 µM; MLM [4]: 32; metabolic stability, in words ([4]; mice): improved metabolic stability
CC(O)(C/N=c1/sc2cccc3c2n1CCC3)C(=O)N1CCN(c2cccc3cnccc23)CC1 (stereo not drawn) [Compound 33]		2.5	3			
C[S+](CC[C@H](N)C(=O)[O-])C[C@H]1O[C@@H](n2cnc3c(N)ncnc32)[C@H](O)[C@@H]1O (stereo partly drawn) [SAM, S-adenosyl-methionine]						Km (NNMT): 1.8 µM
NC(=O)c1cccnc1 [nicotinamide]						Km (NNMT): 400 µM
